Data on 2 compounds can be found in patent US12447141B2, “Liquid tasimelteon formulations and methods of use thereof” (Vanda Pharmaceuticals Inc., priority 2019, dated 2025).

As a reminder, the solubility is how much of the substance goes into solution per volume. Lower therefore signals a poorly soluble substance.

Converted amounts (≈) assume the structure as drawn.

Series [1] in a line: Solubility and pH of saturated solution. Format: physicochemical. To be noted: water.
The nature of series [2]: Chemical / storage stability of tasimelteon and its suspensions. The format is physicochemical. The following applies: formation of three degradation products. As to the method:
Ascorbic acid preferentially undergoes oxidation, thereby preventing oxidation of tasimelteon, but also imparts a yellow color to the suspension on storage, especially when stored at 40° C./75% RH for >3 months, which is the accelerated storage condition for products stored at room temperature (6 months of satisfactory stability is necessary at 40° C./75% RH in order to justify long-term storage at room temperature/25° C./60% RH). Because of the color change from white/off-white to yellow after 3 months storage at 40° C./75% RH, it is necessary to store the suspension at 5° C., for which the accelerated storage condition is 25° C./60% RH and up to 6 months of satisfactory stability data at this storage condition are available (i.e., color change is from white/off-white to slightly yellow).
Short-term stability studies can be undertaken under storage conditions at (1) 5±3° C., (2) 25±2° C. (at 60±5% relative humidity), and 40±2° C. (at 75±5% relative humidity) for one to three months. Under such conditions, total impurities as determined by HPLC for pharmaceutically acceptable compositions are, for example, not more than 2.0 percent by weight or not more than 0.5 percent by weight with respect to known impurities, and not more than 0.2 percent by weight with respect to unspecified impurities.

For series [3] the following is noted: known in the art, cited from earlier work.
Series [4] has as its system Smith-Magenis Syndrome (SMS). Put plainly: Study of efficacy of tasimelteon in disorders including SMS, once daily before bedtime. The format is in vivo, pediatric patients. As to the method:
(§1) One common symptom of SMS is a chronically disrupted sleep pattern, which is found at all ages. In a study to determine the efficacy of tasimelteon in the treatment of disorders, including SMS, oral (20 mg capsule or 4 mg/mL suspension) and intravenous (0.4 mg/mL) formulations were administered once per day before bedtime to pediatric patients 3-17 years old.
Treatment efficacy was assessed by improvements in nighttime sleep (i.e., reduced nighttime activity interrupting the sleep period, improved sleep efficiency, reduced variability in sleep onset, reduced variability in morning awakenings, and/or improved sleep quality), reduced daytime sleepiness, reduced behavioral problems (i.e., reduced aggressive behavior, reduced temper tantrums, reduced hyperactivity, and/or reduced attention deficits).

Series [5] in a line: Apparent clearance in the pediatric study. The format is in vivo, pediatric patients. The following applies: children with body mass greater than 28 kg. Here is the method: as §1

Compound `OC[C@@H](O)[C@@H](O)[C@H](O)[C@H](O)CO` [mannitol] displayed a solubility in series [1] of about 200 mg/mL (≈ 1100 mM).
Turning to `CCC(=O)NC[C@@H]1C[C@H]1c1cccc2c1CCO2` [tasimelteon, trans-N-[[2-(2,3-dihydrobenzofuran-4-yl)cycloprop-1-yl]methyl]propanamide], the oxidative degradation result in series [2] is “susceptible to oxidative degradation”. The same compound registered a solubility in series [1] of about 1 mg/mL (≈ 4.08 mM). In addition, in series [3] (95% ethanol, methanol, acetonitrile, ethyl acetate, isopropanol, polyethylene glycols (PEG-300 and PEG-400)), the “solubility in organic solvents” value is on record as “highly soluble”. Further, the “effect of pH on aqueous solubility” value in series [3] is “substantially unaffected by pH”. The “native pH of a saturated solution in water” value in series [3] (saturated solution in water) is 8.5. The solubility in water entry in series [3] (water) is given as “poorly soluble”. For the same compound, the consistently effective dose is given as 20 mg in series [4] (patients with body mass greater than 28 kg) and 0.7 mg/kg in series [4] (patients with body mass of 28 kg or less). Besides, the apparent clearance entry in series [5] is “constant and similar to that of adults”.
